Conditions: Hot wire method

FC(F)(F)/C=C/Cl [(E)-1-chloro-3,3,3-trifluoroprop-1-ene]
Conditions | thermal conductivity [W/m/K]
422.34 K, 6615 kPa, Liquid | 0.05507
422.35 K, 1562 kPa, Fluid (supercritical or subcritical phases) | 0.02132
422.37 K, 5710 kPa, Liquid | 0.054
422.38 K, 5711 kPa, Liquid | 0.05406
422.4 K, 4942 kPa, Liquid | 0.05308
422.42 K, 802 kPa, Fluid (supercritical or subcritical phases) | 0.02084
422.42 K, 1401 kPa, Fluid (supercritical or subcritical phases) | 0.0211
422.42 K, 4947 kPa, Liquid | 0.05316
422.43 K, 1403 kPa, Fluid (supercritical or subcritical phases) | 0.02113
422.44 K, 4300 kPa, Liquid | 0.05228
422.44 K, 4307 kPa, Liquid | 0.05231
422.45 K, 3760 kPa, Liquid | 0.05158
422.45 K, 3761 kPa, Liquid | 0.05162
422.48 K, 2616 kPa, Liquid | 0.05022
422.48 K, 2911 kPa, Liquid | 0.05073
422.48 K, 3308 kPa, Liquid | 0.05108
422.48 K, 3310 kPa, Liquid | 0.05105
422.49 K, 1222 kPa, Fluid (supercritical or subcritical phases) | 0.02095
422.49 K, 2914 kPa, Liquid | 0.05068
422.5 K, 1220 kPa, Fluid (supercritical or subcritical phases) | 0.02096
422.52 K, 28114 kPa, Liquid | 0.07065
422.54 K, 8781 kPa, Liquid | 0.05725
422.54 K, 28086 kPa, Liquid | 0.07055
422.55 K, 7612 kPa, Liquid | 0.0561
422.55 K, 8782 kPa, Liquid | 0.05725
422.56 K, 28121 kPa, Liquid | 0.0704
422.57 K, 1031 kPa, Fluid (supercritical or subcritical phases) | 0.02086
422.57 K, 1032 kPa, Fluid (supercritical or subcritical phases) | 0.02088
422.57 K, 6610 kPa, Liquid | 0.0551
422.58 K, 6615 kPa, Liquid | 0.05511
422.58 K, 28093 kPa, Liquid | 0.07032
422.61 K, 5714 kPa, Liquid | 0.05406
422.62 K, 5709 kPa, Liquid | 0.05406
422.66 K, 4943 kPa, Liquid | 0.05316
422.66 K, 4946 kPa, Liquid | 0.05333
422.67 K, 800 kPa, Fluid (supercritical or subcritical phases) | 0.02086
422.69 K, 11667 kPa, Liquid | 0.05975
422.7 K, 4304 kPa, Liquid | 0.05243
422.7 K, 4305 kPa, Liquid | 0.05239
422.71 K, 3758 kPa, Liquid | 0.05174
422.71 K, 3761 kPa, Liquid | 0.05177
422.72 K, 20061 kPa, Liquid | 0.0657
422.73 K, 3307 kPa, Liquid | 0.0512
422.73 K, 3310 kPa, Liquid | 0.05125
422.74 K, 10145 kPa, Liquid | 0.0585
422.78 K, 17484 kPa, Liquid | 0.06408
422.79 K, 8779 kPa, Liquid | 0.05724
422.79 K, 8783 kPa, Liquid | 0.05727
422.79 K, 17485 kPa, Liquid | 0.06404
422.79 K, 25690 kPa, Liquid | 0.06898
422.8 K, 7613 kPa, Liquid | 0.05618
422.8 K, 7618 kPa, Liquid | 0.05616
422.8 K, 25708 kPa, Liquid | 0.06904
422.8 K, 28111 kPa, Liquid | 0.07046
422.8 K, 28112 kPa, Liquid | 0.07051
422.82 K, 15379 kPa, Liquid | 0.06258
422.83 K, 6608 kPa, Liquid | 0.05508
422.83 K, 6614 kPa, Liquid | 0.05515
422.83 K, 28116 kPa, Liquid | 0.07034
422.84 K, 15382 kPa, Liquid | 0.06256
422.84 K, 28116 kPa, Liquid | 0.07035
422.86 K, 22725 kPa, Liquid | 0.06729
422.87 K, 5712 kPa, Liquid | 0.0541
422.87 K, 5716 kPa, Liquid | 0.05417
422.87 K, 22727 kPa, Liquid | 0.06729
422.89 K, 13389 kPa, Liquid | 0.06114
422.89 K, 13396 kPa, Liquid | 0.0611
422.92 K, 4948 kPa, Liquid | 0.05329
422.93 K, 4948 kPa, Liquid | 0.05326
422.93 K, 11677 kPa, Liquid | 0.05979
422.94 K, 11666 kPa, Liquid | 0.05974
422.96 K, 4303 kPa, Liquid | 0.05247
